Laboratory results reported in patent US20090318468A1, “PYRAZOLE COMPOUNDS 436” (AstraZeneca AB, priority 2008, published 2009).
“And” between values parts separate entries of the source, which are not always exact repeats. Identical values can stand only once.

What was measured:
[1] = Clearance (pharmacokinetics) in rats; type: in vivo; conditions: rat, whole blood, male rats, dose 0.927 mg/kg (2 umol/kg); for Vd: read-out: Vss
Description: For the rat dose of 0.927 mg/kg (2 umol/kg), the compounds were formulated in 20% DMA:80% sorensens buffer pH 5 at 1 umol/ml. Each formulation was dosed (2 mL/kg) to four male rats (250-300 g) which had free access to food. Blood samples were taken via the tail vein at 5 and 20 minutes, and 1 and 4 hours post dose from 2 rats, and at 10 and 40 minutes, and 2 and 6 hours from the other 2 rats. Terminal samples were taken at 12 hours from the first pair of rats and 24 hours from the second pair. The blood samples were diluted 1:1 with water prior to analysis.
A set of 10 calibration standards covering the concentration range (0.001 umol/L to 10 umol/L) were prepared by spiking blank matrix (1:1 blood:water). The samples and standards were extracted using a solid phase extraction plate, blown down under nitrogen, and then reconstituted in methanol:water (20:80). The samples were analysed using LC-MSMS and the results obtained were used to determine the area under the curve from time 0 to infinity [AUC0-inf (ug.hr/ml)], clearance [Cl (ml/min/kg)] and the steady state volume distribution [Vss (L/kg)] for each compound.

[2] = Protein binding by equilibrium dialysis (human); type: in vitro ADME; conditions: 20 μM compound, 10% plasma, 37° C., read-out: % free (protein binding)
Description: Protein binding is determined by equilibrium dialysis. A 20 μM concentration of compound is dialyzed against 10% plasma at a temperature of 37° C. for 18 h. The resulting samples are analyzed using generic HPLC-UV methodology coupled with mass spectral peak identification. The reported K1 value is the first apparent association constant [proteináligand]/([protein][ligand]), all concentrations being measured in moles/liter (J. Med. Chem., 2006, 49(23), 6672-6682).
Protein binding can be measured in a high-throughput screen by equilibrium dialysis combined with liquid chromatography and mass spectrometry (Wan, H. and Rehngren, M., J. Chromatogr. A 2006, 1102, 125-134).

FGFR4 = FGFR4 (Homo sapiens, UniProt P22455); assay: FGFR4 Kinase Assay - Caliper; type: biochemical; conditions: 30 μM ATP, separate test occasions listed, read-out: IC50 (inhibition of FGFR4 kinase activity)
Sequence of FGFR4 (P22455 22-802): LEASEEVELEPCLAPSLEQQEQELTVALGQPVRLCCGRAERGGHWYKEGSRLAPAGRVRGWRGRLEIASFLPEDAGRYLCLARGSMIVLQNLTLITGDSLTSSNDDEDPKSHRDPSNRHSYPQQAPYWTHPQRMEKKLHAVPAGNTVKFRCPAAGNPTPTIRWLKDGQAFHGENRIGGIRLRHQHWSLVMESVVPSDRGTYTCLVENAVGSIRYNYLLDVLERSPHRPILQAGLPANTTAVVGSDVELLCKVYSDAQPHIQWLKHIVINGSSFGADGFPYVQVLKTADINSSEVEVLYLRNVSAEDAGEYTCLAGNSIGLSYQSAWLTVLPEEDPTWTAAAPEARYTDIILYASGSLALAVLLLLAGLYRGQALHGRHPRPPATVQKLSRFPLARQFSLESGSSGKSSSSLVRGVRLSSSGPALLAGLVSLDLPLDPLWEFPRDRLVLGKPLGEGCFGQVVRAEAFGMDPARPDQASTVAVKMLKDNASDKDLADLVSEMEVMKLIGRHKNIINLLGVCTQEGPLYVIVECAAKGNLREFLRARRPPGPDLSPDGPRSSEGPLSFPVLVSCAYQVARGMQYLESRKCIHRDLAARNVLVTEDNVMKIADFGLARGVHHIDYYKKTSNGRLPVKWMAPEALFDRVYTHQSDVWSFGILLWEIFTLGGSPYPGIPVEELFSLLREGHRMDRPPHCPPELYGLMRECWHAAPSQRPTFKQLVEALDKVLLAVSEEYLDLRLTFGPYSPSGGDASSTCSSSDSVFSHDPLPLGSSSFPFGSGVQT
Description: FGFR4 Kinase Assay—Caliper
To determine inhibition of FGFR4 activity, kinase assays were conducted using Caliper technology. FGFR4 enzyme was used (8 μM, Cat. No. PR4380B, Invitrogen). Kinase activity assays were performed in Greiner 384-well low volume plates, with a total reaction volume of 12 μL per well. The final concentration of FGFR4 active kinase in each reaction well was 25 nM. The substrate for each assay was a custom peptide with fluorescent tag (13 amino acids in length, 5FAM-[…]—CONH2) the sequence of which was specific for FGFR4 kinase.
Compounds were serially diluted in 5% (v/v) DMSO, before being added to assay plates. The Enzyme (at 25 nM (final)) and Substrate (at 1.5 μM (final)) were added separately to the compound plates, in reaction buffer (comprising: 100 mM HEPES—pH 7.5, 0.004% Triton, 1 mM DTT (final), 10 mM MnCl2 (final), 30 μM ATP (final)) resulting in a final DMSO concentration in the reaction mix of 0.8%.
Assay plates were incubated at RT for 2 hours, before the reaction was stopped with the addition of buffer (comprising: 100 mM HEPES—pH7.5, 0.033% Brij-35, 0.22% Caliper Coating Reagent #3, 40 mM EDTA, 5% DMSO). Stopped assay plates were then read using the Caliper LabChip™ LC3000 (which uses microfludics to measure a shift in mobility between fluorescent labelled peptide and the FGFR4 kinase—phosphorylated form of this peptide). […]

Row | AUC(0-inf) [1] [ng·h/mL] | clearance [1] [mL/min/kg] | Vd [1] [L/kg] | fraction unbound at 18 h, 20 μM [2] | IC50 (FGFR4) | SMILES
1 | 254 | 60.9 | 2.58 | 0.0372 | – | COc1cc(CCc2cc(NC(=O)c3ccc(N4CCN(C)[C@@H](C)C4)cc3)[nH]n2)cc(OC)c1 [Example 1a, (S)—N-(3-(3,5-Dimethoxyphenethyl)-1H-pyrazol-5-yl)-4-(3,4-dimethylpiperazin-1-yl)benzamide]
2 | 473 | 32.7 | 1.74 | 0.0279 | 22 nM and 16 nM (2×) | COc1cc(CCc2cc(NC(=O)c3ccc(N4CCN(C)[C@H](C)C4)cc3)[nH]n2)cc(OC)c1 [Example 1b, (R)—N-(3-(3,5-Dimethoxyphenethyl)-1H-pyrazol-5-yl)-4-(3,4-dimethylpiperazin-1-yl)benzamide]
